Consider 1 compound from US10556860B2, “hTERT modulators and methods of use” (Arizona Board of Regents on Behalf of the University of …, priority 2015, dated 2020).

Assay [1] deals with G138/139A mutant hTERT G-quadruplex. Briefly: CD melting (Tm), G138/139A mutant. In kind it is binding, human. The note with it: 2 equiv. The method, then: (§1) Circular dichroism. Oligomers of WT, G124A, G124/125A, G138/139A and G146A were synthesized and HPSF-purified by MGW Operon, Inc. For CD analysis, oligomers (5 μM) in a buffer containing 10 mM Tris-HCl (pH 7.5) and 140 mM KCl were annealed. For the CD analysis of the complex of oligomers and compounds, oligomers (5 μM) in a buffer containing 10 mM Tris-HCl (pH 7.5) and 5 mM KCl for GTC365 or 1 mM KCl for BRACO-19 were annealed. Oligomers and GTC365 or BRACO-19 were incubated overnight at room temperature. For the full-length of C-rich strand, the oligomer in a buffer of 10 mM Na cacodylate (pH 6.6) was annealed and then incubated with GTC365 overnight. CD analysis was conducted on a Jasco 810 spectropolarimeter (Jasco, Easton, Md.) using a quartz cell with 1 mm of path length, 1 nm of band width, and 1 s of response time for spectra at 20° C. Melting curves for the determination of Tm were obtained by recording ellipticity at 262 nm with increasing temperatures from 25° C. to 95° C. at a rate of 1.6° C./min. Tm of the C-rich strand with GTC365 was obtained from the CD signal at 286 nm within 10-60° C.
(§2) CD and DMS footprinting analyses were conducted to characterize the binding of GTC365 and BRACO-19 to the 5-12 G-quadruplex. […] To verify the effects of compounds on the thermal stability of the WT and the mutant G-quadruplexes, Tms were determined by CD. […]

Assay [2] concerns pGL3 constructs that contain the G124A, G124/125A, G138/139A, and G146A mutations. Briefly: Luciferase assay, somatic mutant constructs in MCF7 cells. In kind it is cell-based, human. The note with it: 24 h. The method, then:
Luciferase assay. From gDNA extracted from HeLa cells, the hTERT core promoter region, including −350 bp to +12 from the transcription start site, was amplified using a pair of primers, including KpnI and NheI restriction sites, for cloning of pGL3-hTERT with WT promoter sequence. Mutant constructs were generated by PCR-based site-directed mutagenesis. The sequence of each construct was confirmed by sequencing analysis. MCF7 cells in 24-well plate were transfected with 200 ng of pGL3 construct and 5 ng of pRL-TK by Fugene® HD Transfection Reagent and then incubated for 6 h. Media were replaced by fresh ones and the cells were treated with GTC365 or BRACO-19. The same volume of DMSO served as a control. After 24 h of incubation, cells were lysed by passive lysis buffer (Promega) and subjected to dual-luciferase assay (Promega) using an FB12 luminometer. The ratio of firefly to renilla luciferase activity was normalized to the DMSO to obtain the relative luciferase activity.
The effect of GTC365 on the somatic mutants in the hTERT promoter region was also examined by transfecting cells with pGL3 constructs that contain the G124A, G124/125A, G138/139A, and G146A mutations.

For assay [3], the system named is G146A mutant hTERT G-quadruplex. Briefly: CD melting (Tm), G146A mutant. In kind it is binding, human. The note with it: 2 equiv. The method, then:
as §1, §2

For assay [4], the target named is WT 5-12 G-quadruplex of hTERT core promoter (FAM/TAMRA probe). Briefly: FRET assay for compound screening and Kd, WT probe. In kind it is binding, human. As for the experimental part: FRET assay for compound screening and determination of Kd value. FRET probes of WT, G124/125A, and G146A of the 5-12 G-quadruplex were synthesized and labeled with FAM (Ex. 490 nm/Em. 520 nm) and TAMRA (Ex. 560 nm/Em. 580 nm) at each end by MGW Operon Inc. The WT probe (50 nM) was annealed in a buffer containing 10 mM Tris-HCl (pH 7.5) and 5 mM KCl by heating at 95° C. for 5 min and slowly cooling to room temperature. Compounds (50 μM) and probe were incubated for 1 h at room temperature. The same volume of DMSO served as a control. For Kd value determination, the WT, G124/125A, and G146A probes were annealed, and then several concentrations of compound were treated for 1 h at room temperature. Dose-dependent fluorescence intensity at 520 nm was measured by a microplate reader (BioTek Synergy HT). The data were corrected with the blank signal of buffer and compound. The relative fluorescence intensity compared to DMSO was used for binding curve fitting to determine Kd value using GraphPad Prism software.
The hTERT core promoter region includes 12 runs of consecutive guanines that form two G-quadruplexes in tandem on the G-rich strand. […] When the G-quadruplex is folded, two fluorophores are in proximity, which leads to a decrease in FAM fluorescence. […]

Usually Kd stands for the constant that tells how readily two partners part at equilibrium. With `N=C(N)NCCCS(=O)(=O)Nc1ccc(Nc2c3ccccc3nc3cc([N+](=O)[O-])ccc23)cc1` [GTC365], the “Tm more increased compared to the WT” value in assay [1] and in assay [3] was 6-7 °C throughout. In addition, the “luciferase activity of the mutants” value in assay [2] is recorded as “decreased luciferase activity of the mutants in a dose-dependent manner”. The Kd in assay [4] (WT probe, FAM- and TAMRA-labeled oligomer) is around 0.4 µM. The “reduction of fluorescence intensity (FRET)” value in assay [4] (compounds 50 μM, WT probe 50 nM, 10 mM Tris-HCl, 5 mM KCl, 1 h) came to 94%.
